The METLIN SMRT retention time set (Domingo-Almenara et al. 2019)

Experiment: gradient 5% acetonitrile 3 min, to 50% in 2 min, to 85% in 15 min, held 3 min, 100 µL/min
Conditions: column: Zorbax Extend-C18 2.1 x 50 mm; eluents: water / acetonitrile, 0.1% formic acid
How it was run: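 Retention time was recorded from adduct peaks, which were picked computationally and each inspected manually. Pure standards ran in mixtures of ~100 molecules on HPLC coupled to a quadrupole time-of-flight mass spectrometer, in positive and negative ionization mode, through a Zorbax Extend-C18 column (2.1 × 50 mm, 1.8 μm) at 100 μL/min. Eluents were water and acetonitrile, each with 0.1% formic acid.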

SMILES	RP-LC retention time [s]
COc1ccc(NC(=O)CSc2ccc(N3CCCC(C(=O)NC4CC4)C3)nn2)c(OC)c1 (stereo unspecified)	642
CCCCC(=O)Nc1nc(-c2ccc3c(c2)N(C)C(=O)CO3)cs1	900
CC1=C(c2ccc(C)cc2)S(=O)(=O)N=C1N1CCCN(C(=O)C2CCCCC2)CC1	600
Cn1cc(CC(=O)NCc2cc(F)ccc2F)c2cccnc21	683
Cc1cccc2c1cnn2C(=O)CCC(=O)N1CCN(c2ccccn2)CC1	632
O=C1CCN(C(=O)[C@@H]2CCCN2C(=O)C2CCCCC2)CCCCCCN1	743
NC(=O)C1CCN(C(=O)c2cn(-c3ccc(Cl)cc3)nn2)CC1	660
Cc1cc(C)n2nc(SCC(=O)NC3CCCCC3)nc2n1	693
Cc1ccc(N2C=NS(=O)(=O)c3cccnc32)c(F)c1	801
O=C(Nc1cccc(Cl)c1)C1CCCN(c2nc3ccsc3c(=O)n2Cc2ccc(F)cc2)C1 (stereo unspecified)	1110
Cc1nnc(-c2ccc(S(=O)(=O)N3CCN(C4CCCCC4)CC3)o2)o1	622
O=C(c1ccccc1Cl)N(CCc1ccccc1)Cc1ccccn1	790
CC(=O)N(Cc1nn(C)c2c1CN(S(=O)(=O)c1ccccc1)CC2)c1ccccc1	766
CCc1ccc(-c2noc(Cn3c(=O)n(CC)c(=O)c4ccccc43)n2)cc1	1160
O=C(NC1CCCCC1)c1nnc(-c2ccc(S(=O)(=O)N3CCCCC3)cc2)o1	1040
CCCCS(=O)(=O)N1CCc2nc(-c3ccccc3)ncc2C1	970
CCNS(=O)(=O)c1cccnc1Nc1ccc(C)c(Cl)c1	1110
CCc1ccc(N2CC(c3noc(-c4ccc(-c5ccccc5)cc4)n3)CC2=O)cc1 (stereo unspecified)	1340

SMILES	RP-LC retention time [s]
COc1ccc(Cc2nc3ccccc3n2CC(N)=O)cc1OC	566
Cc1cccc(NC(=O)Cn2cc(S(=O)(=O)c3ccc(F)cc3)c3ccccc32)n1	832
COc1cccc(CNC(=O)C2(C)CCCN(C(=O)Nc3ccccc3Br)C2)c1 (stereo unspecified)	942
Cc1nc(-c2noc(-c3ccncc3)n2)cn1CC(=O)Nc1ccc(F)cc1	833
CCCn1ccc2sc(C)c(C(=O)NC3CC3)c2c1=O	679
O=C(Nc1ccc2cn[nH]c2c1)C1(c2ccccc2)CCOCC1	676
CCCN1CCN(C(=O)c2ccc3c(c2)Sc2ncccc2C(=O)N3CC)CC1	579
O=C(c1c(-c2ccccc2)nnc2ccccc12)N1CCN(c2ncccn2)CC1	773
Cc1ccc(C)c(OCC(O)Cn2c(C3CC3)nc3ccccc32)c1 (stereo unspecified)	731
Cc1cc(NC(=O)N2CCC(n3c(C)nc4cccnc43)CC2)ccc1Br	706
O=C(c1ccc2ccccc2n1)N1CCN(C(=O)N2C[C@H]3C[C@H](C2)[C@H]2CCCC(=O)N2C3)CC1	650
CCCNC(=O)C1CCN(c2ccc(SCC(=O)Nc3ccc(OCC)cc3)nn2)CC1	639
CCOc1ccc(N2CC(c3nnc(NC(=O)c4ccc(Br)cc4)o3)CC2=O)cc1 (stereo unspecified)	805
CSc1ccc(NC(=O)C2CC(=O)N(c3ccc4c(c3)CCN4C(C)=O)C2)cc1 (stereo unspecified)	730
Cc1ccc(-c2nc(-c3ccc4c(c3)nc(C)c(=O)n4C)no2)c(C)c1	1220
CCN1CCCn2cc(S(=O)(=O)N3CCN(c4ccccc4OC)CC3)cc2C1=O	784
Cc1c(NC(=O)c2sc3cc(F)ccc3c2Cl)c(=O)n(-c2ccccc2)n1C	756
Cc1cccc2c(=O)n(C3CCN(S(=O)(=O)c4ccc(Cl)cc4)CC3)cnc12	1030

Further lines, results first:

RP-LC retention time [s]	SMILES
656	O=C(c1ccccc1Cl)N1CCC2(CC1)OCC(C(=O)N1CCOCC1)N2C(=O)c1ccccc1 (stereo unspecified)
706	O=C(NCCCc1ccccc1)c1ccc2c(c1)N(CC(=O)N1CCCC1)C(=O)CO2
670	CCc1ccccc1NC(=O)N1CCN(c2cc(C)nc(N3CCCC3)n2)CC1
653	CCCNC(=O)C1CCN(c2ccc(SCC(=O)Nc3cc(OC)cc(OC)c3)nn2)CC1
730	CCc1nn(CC(=O)N2CCN(c3ncccn3)CC2)c(=O)c2cc3sccc3n12
942	Cc1ccc(CNC(=O)C2(C)CN(S(=O)(=O)c3ccccc3)CC(=O)N2c2ccc(F)cc2)cc1 (stereo unspecified)
576	Cc1ccc(S(=O)(=O)NCC2CCN(C(=O)Oc3ccccc3)CC2)s1
1040	Cc1cc(=O)n(CC(=O)Nc2ccc(F)cc2)c(-c2ccc(F)cc2)n1
979	O=c1n(Cc2ccccc2Cl)nc2ccc(S(=O)(=O)N3CCCCC3)cn12
829	CCN(Cc1ccccc1)C(=O)Cn1nc2c(N3CCSCC3)nccn2c1=O
674	Cc1ccc(NC(=O)Cn2cnc3nc(N4CCCC(C(=O)NC5CC5)C4)sc3c2=O)cc1 (stereo unspecified)
863	O=C(C1CCCN(c2ncc(-c3ccc(F)cc3)cn2)C1)N1CCCC1 (stereo unspecified)
811	Cc1ccc(F)c(NC(=O)c2cn3c(n2)CSCC3)c1
574	CN(C)c1ccc2c(c1)CN(C(=O)C1CC1)CCO2
784	CN1C2CCC1CC(OC(c1ccccc1)c1ccccc1)C2 (stereo unspecified)
647	CCc1cc(=O)n(CC(=O)NC2CCCC2)c(N2CCOCC2)n1
692	O=C(NCCc1c[nH]c2ccccc12)c1nnc2n(c1=O)CCN2c1ccc(F)cc1
1100	CCOC(=O)c1c(C)oc2nc(C)nc(NCc3ccc4c(c3)OCO4)c12
636	Cc1cc(N2CCOCC2)nc(N2CCN(C(=O)c3cccc(Br)c3)CC2)n1
749	O=C(NCCc1c[nH]c2ccccc12)c1cccc(N2C(=O)CCS2(=O)=O)c1
589	O=C(NCc1cccs1)c1cccc2cnccc12
960	CCCn1cc(S(=O)(=O)Nc2ccc(C)c(C)c2)c2cccnc21
730	O=C(Nc1cccc(-c2ccc(N3CCOCC3)nn2)c1)Nc1ccccc1Cl
1080	CC(C)CC(=O)Nc1ccc(S(=O)(=O)N2CCCC2c2nc(-c3ccc(F)cc3)no2)cc1 (stereo unspecified)
780	COc1cccc(-c2cn3ccn(-c4ccccc4OC)c(=O)c3n2)c1
805	Cc1nc(-c2cn(-c3cccc(F)c3)nn2)no1
648	CC1C(=O)NCCN1C(=O)CSc1ccc(Cl)cc1 (stereo unspecified)
590	CCn1c(C)c(C(C)=O)c2cc(OCC(O)CNC(C)c3ccccc3)ccc21 (stereo unspecified)
1220	CC(C)(C)c1csc(-c2csc(S(=O)(=O)NCc3ccc(F)cc3)c2)n1
682	O=C(CCc1c[nH]c2ccccc12)Nc1cccc(-c2nnc3n2CCCC3)c1
